The nature of data set [1]: Fluorescence anisotropy titration, equilibrium binding to DMPG small unilamellar vesicles. Type of data set: physicochemical. As to conditions: negatively charged DMPG vesicles, PBS pH 7.4, 37° C.; K values subject to 10% uncertainty. As to the method: (§1) As a consequence of the brilliant fluorescence emissions from the newly synthesized homosilatecans (a summary of the spectral parameters can be found in Table 1), the lipid bilayer adsorption isotherms summarized in FIG. 4 were relatively free from any background signal. The method of fluorescence anisotropy titration was used to construct the adsorption isotherms. The experiments were conducted at drug concentrations of 1 μM in PBS buffer (37° C.). […] Because of the potential of the lactone ring of the homosilatecans and camptothecins to hydrolyze in PBS, anisotropy values at each lipid concentration were determined immediately (approx. 1 min.) following the addition of the lactone form of each agent to the liposome suspension as to minimize any possibility of conversion to the carboxylate form. Using drug concentrations of 1 μM and long pass filters to isolate emitted light from background signal (that is, scattered exciting light and extraneous fluorescence signal resulting from the possible presence of impurities), signal levels from drugs dissolved in PBS buffer were typically 99.97% in the absence of membrane and greater than 98% in the presence of membrane. Adsorption isotherms were used to determine overall association constants for the homosilatecan, silatecan, and camptothecin drugs. Overall association constants are defined as: K=[AB]/[AF][L] where [AB] represents the concentration of bound drug, [AF] represents the concentration of free drug, and [L] represents the total lipid concentration in the vesicle suspension. This equation is valid when the concentration of free lipid is approximately equal to the concentration of total lipid (that is, the concentration of free lipid is in significant excess over the concentration of bound drug). Provided this condition is satisfied, K may be determined from the inverse of the slope of a double reciprocal plot. In such a double reciprocal plot, 1/fraction of the total drug bound is plotted vs. 1/lipid concentration, with a y-intercept value of 1 (for a system displaying binding site homogeneity). Such double-reciprocal plots for the associations of the new homosilatecans analogs (both lactone and carboxylate forms) with DMPC and DMPG small unilamellar vesicle (SUV) preparations were linear with good correlation coefficients.
(§2) The studies summarized in Table 2 examine the structural basis of homosilatecan associations for lipid bilayers. Two types of membranes were included in these studies which were conducted under near physiological conditions of pH and temperature; these membranes include fluid-phase and electroneutral L-α-dimyristoylphosphatidyl-choline (DMPC); and fluid-phase and negatively-charged L-α-dimyristoylphosphatidylglycerol (DMPG). DMPC and DMPG have identical chain length but the charges on their head groups differ.
(§3) In the studies of Table 2, binding isotherms were constructed using the method of fluorescence anisotropy titration as discussed above, and K values were determined from the slopes of the double-reciprocal plots. The K values are subject to 10% uncertainty. One of the most striking features of the data contained in Table 2 is the strong modulation which can be achieved through the creation of A,B,E-ring modified camptothecins (for example, the homosilatecans known as DB-38, DB-90, and DB-91) or B,E-ring modified camptothecins (for example, the homosilatecan known as DB-81). Homosilatecans containing either a sole substitution at the 7 position or dual substitution at the 7 and 10 positions have been created and found to display very high lipophilicities. Included in Table 2 are camptothecin compounds (topotecan and camptothecin). For DB-81, the lipophilicity for DMPC membranes relative to corresponding value for topotecan increases over 1,400-fold. Data for these agents were included to show the highly lipophilic nature of the new homocamptothecins relative to compounds such as topotecan and camptothecin. […]

The nature of data set [2]: Lactone ring stability in human plasma by HPLC. As to conditions: 3 hours, 37° C., pH 7.5, 1 μM. Type of data set: in vitro ADME. Here is the method: FIG. 13 depicts the improved stabilities of four novel homosilatecans of the current invention following incubation in PBS containing 30 mg/ml human serum albumin at 37° C. […] All the experiments of FIG. 14 were conducted in human plasma at 37° C. Plasma samples were continuously aerated by a stream of blood gas resulting in the maintenance of pH at values of 7.5±0.1.
HPLC solvents were from Fisher Scientific.
To characterize the stabilities of the novel silatecans of interest in human plasma, frozen plasma was incubated at 37° C. in order to thaw. Blood gas was bubbled through the plasma to adjust the pH close to 7.5. […] The samples were then allowed to incubate further at 37° C. […] Tubes were vortexed for 10 sec and centrifuged in a tabletop microcentrifuge at 8000 rpm for 45 sec. […] The sample was analyzed by HPLC as soon as possible. The data analysis was as described for drug in PBS only samples as described above. Blood gas was continuously bubbled through the plasma samples to pH at 7.5+/−[…].

Data set [3] is described as follows: Fluorescence anisotropy titration, equilibrium binding to DMPC small unilamellar vesicles. Type of data set: physicochemical. As to conditions: for KDMPC overall association constant: electroneutral DMPC vesicles, PBS pH 7.4, 37° C., K values subject to 10% uncertainty. Here is the method:
as §1, §2, §3

`CCC1(O)CC(=O)OCc2c1cc1n(c2=O)Cc2c-1nc1ccc(N)cc1c2[Si](C)(C)C` (racemic) [DB-38, 5-Ethyl-1,4,5,13-tetrahydro-5-hydroxy-10-amino-12-trimethylsilyl-3H,15H-oxepino[3′,4′:6,7]indolizino[1,2-b]quinoline-3,15-dione]: in data set [1], the “KDMPG overall association constant” value worked out at 800 M⁻¹. Further, in data set [2], the “% Lactone” value is 40.3 ± 2.1%. Also, the “KDMPC overall association constant” value in data set [3] came to 1400 M⁻¹.

Regarding `CCC1(O)CC(=O)OCc2c1cc1n(c2=O)Cc2c-1nc1ccccc1c2[Si](C)(C)C(C)(C)C` (racemic) [DB-81, 5-Ethyl-1,4,5,13-tetrahydro-5-hydroxy-12-tert-butyldimethylsilyl-3H,15H-oxepino[3′,4′:6,7]indolizino[1,2-b]quinoline-3,15-dione], in data set [1], the “KDMPG overall association constant” value amounted to 18500 M⁻¹. For the same molecule, the “% Lactone” value in data set [2] was 85.0 ± 4.3%. For the same molecule, the “increase of lipophilicity for DMPC membranes relative to topotecan” value in data set [3] (1 μM, pH 7.4) was “over 1,400 fold”. For the same molecule, the “KDMPC overall association constant” value in data set [3] was found to be 14400 M⁻¹.

On to `CCC1(O)CC(=O)OCc2c1cc1n(c2=O)Cc2c-1nc1ccc(N)cc1c2[Si](C)(C)C(C)(C)C` (racemic) [DB-90, 5-Ethyl-1,4,5,13-tetrahydro-5-hydroxy-10-amino-12-tert-butyldimethylsilyl-3H,15H-oxepino[3′,4′:6,7]indolizino[1,2-b]quinoline-3,15-dione], for which the “KDMPG overall association constant” value in data set [1] amounted to 9300 M⁻¹. The “% Lactone” value in data set [2] was 71.1 ± 3.5%. Further, in data set [3], the “decrease in DMPC binding upon ring opening (lactone vs carboxylate)” value was 10 fold and the “KDMPC overall association constant” value stood at 8600 M⁻¹.

In the case of `CCC1(O)CC(=O)OCc2c1cc1n(c2=O)Cc2c-1nc1ccc(O)cc1c2[Si](C)(C)C(C)(C)C` (racemic) [DB-91, 5-Ethyl-1,4,5,13-tetrahydro-5-hydroxy-10-hydroxy-12-tert-butyldimethylsilyl-3H,15H-oxepino[3′,4′:6,7]indolizino[1,2-b]quinoline-3,15-dione], the “KDMPG overall association constant” value in data set [1] is 4300 M⁻¹. The “% Lactone” value in data set [2] turned out to be 61.5 ± 3.9%. In data set [3], the “decrease in DMPC binding upon ring opening (lactone vs carboxylate)” value came to 10 fold.

The values above are taken from patent US7538220B2, “Intermediates in the preparation of homocamptothecin analogs” (University of Pittsburgh - of the Commonwealth System of …, priority 1999, dated 2009).
